US20190231771A1, “METHODS FOR TREATMENT AND PREVENTION OF OPIOID INDUCED CONSTIPATION USING ORAL COMPOSITIONS OF METHYLNALTREXONE” (Salix Pharmaceuticals, Ltd., priority 2011, published 2019)
Where “and” joins values, the source holds several entries; their conditions need not be identical. Equal entries are not always repeated. Entries after “also recorded” stand apart in the source; their conditions may differ. Where two headings read alike, the source gives them in different places.

How the values were obtained:
[1] = Food effect study: single oral 450 mg MNTX fasted vs high-fat breakfast, 2-period crossover; format: in vivo, human; conditions: for Cmax / half-life / AUC(0-inf) / AUC(0-t) / Tmax: both sexes, human, plasma, oral, 450 mg; for half-life: harmonic mean; for Tmax: median
Protocol: Presented herein is a single-dose, 2-period crossover study to evaluate the effect of a standard high-fat breakfast on the pharmacokinetics of a single oral dose of 450 mg (3×150 mg tablets) MNTX. The study had 2 arms and 2 dosing periods.
Thirty-two subjects were enrolled into this study. Subjects were randomized at a 1:1 ratio to Arm 1 (fasted then fed) or Arm 2 (fed then fasted). Randomization was stratified by sex. Each subject received a single dose of MNTX 450 mg (administered as 3×150 mg tablets) with a high fat meal (MNTX fed) and after fasting (MNTX fasted). The fasted/fed study periods were separated by 7 days. The sequence of fasted/fed or fed/fasted dosing on Days 1 and 8 was determined by randomization on Day 1.
For the fasted treatment, a single 450 mg (3×150 mg) oral dose of MNTX tablets was administered to subjects following a supervised overnight fast of at least 10 hours. No food was allowed for at least 4 hours post dose.
For the fed treatment, a standard high-fat breakfast was given to the subjects following an overnight fast of at least 10 hours. A single 450 mg (3×150 mg) oral dose of MNTX tablets was administered to subjects 30 minutes after the subject began the meal. No food was allowed for at least 4 hours after drug administration.
Subjects were administered a single oral dose of MNTX tablets (450 mg) on Day 1 and Day 8 after a high fat meal or fasting as follows: (a) MNTX 450 mg (orally as 3×150 mg tablets) administered after a high-fat (high caloric) breakfast, or (b) MNTX 450 mg (orally as 3×150 mg tablets) administered after fasting.
Subjects received a single dose of MNTX 450 mg administered orally as 3×150 mg tablets immediately after a high fat/high calorie meal (MNTX fed) and after fasting (MNTX fasted). A 7-day washout period separated the fasted/fed crossover periods. The sequence of fasted/fed or fed/fasting dosing on Days 1 and 8 was determined by randomization on Day 1. Subjects fasted overnight for a minimum of 10 hours prior to administration of a high fat meal with the single dose of study drug (MNTX fed) or 10 hours prior to administration of the single dose of study drug (MNTX fasted).
Each dose on Day 1 and 8 was administered with 240 mL of room temperature drinking water, and the subjects were instructed to drink all of the water. No food was permitted for 4 hours after drug administration and water was allowed as desired except for 1 hour before and after drug administration. Approximately 4 hours after dosing, a normal meal schedule could be resumed.
A high fat/high caloric meal includes fat content of approximately 50% of total calories in the meal (approximately 800 to 1000 calories total). Subjects receiving the MNTX fed treatment regimen were required to fast for at least 10 hours before breakfast and then to eat the protocol-specified breakfast starting 30 minutes before dosing. The high-fat, high caloric breakfast consisted of the following: • Two slices of toast with ½ pat of butter on each slice. • Two eggs fried in butter. • Two strips of bacon. • Four ounces (113 g) hash brown potatoes. • Eight ounces (240 mL) of whole milk.
Plasma concentrations of MNTX were determined using a validated analytical procedure involving high performance liquid chromatography with tandem quadrupole mass spectrometric detection. Blood samples for determination of MNTX concentrations in plasma were obtained predose (approximately 1 hour prior to dose administration) on Day 1, and at 0.25, 0.5, 1, 2, 4, 6, 8, 10, 12, 16, 24, 36, 48, 72, 96, 120, 144 and 168 hours following each dose administration on Days 1 and 8. Pharmacokinetic parameters that were measured and calculated include the following: […]

[2] = cited from earlier work
[3] = Yuan et al. 2005 J Clin Pharm 45:538-546; cited from earlier work
[4] = rats; cited from earlier work
[5] = 450 mg Single-Dose Fasted, mean
[6] = orally administered MNTX, other studies

C[N@+]1(CC2CC2)CC[C@]23c4c5ccc(O)c4O[C@H]2C(=O)CC[C@@]3(O)[C@H]1C5.[Br-] [MNTX, (R)—N-(cyclopropylmethyl) noroxymorphone methobromide]
CL/F [1, 5]: 1608644 mL/h | λz [1, 5]: 0.04 h⁻¹ and 0.0403 h⁻¹ | CL/F ([1]; 450 mg Single-Dose Fed, mean): 2961340 mL/h | λz ([1]; 450 mg Single-Dose Fed, mean): 0.04 h⁻¹ and 0.0413 h⁻¹ | AUC0-∞ Geometric Mean Ratio, fasted divided by fed ([1]; 450 mg single dose): 198.17% | AUClast Geometric Mean Ratio, fasted divided by fed ([1]; 450 mg single dose): 199.28% | AUClast and AUC0-∞ higher in fasted as compared with fed subjects ([1]; 450 mg single dose): approximately 2 fold | Cmax Geometric Mean Ratio, fasted divided by fed ([1]; 450 mg single dose): 273.6% and 273.62% | arithmetic mean Cmax in fed subjects as share of that in fasted subjects ([1]; 450 mg single dose): ~28% | decrease of systemic exposure by food (as determined by AUC and Cmax) ([1]; 450 mg single dose): approximately half to three quarters | systemic exposure (AUClast and AUC0-∞) lower in fed than in fasted subjects ([1]; 450 mg single dose): approximately 50% | bioequivalence under fed and fasted conditions (80% to 125% range) ([1]; 450 mg single dose, Cmax, AUClast, AUC0-∞): nonbioequivalence; also recorded: non-bioequivalent; also recorded: not bioequivalent | deaths, SAEs, TEAEs resulting in study discontinuation ([1]; 450 mg single doses): no deaths, SAEs, or TEAEs resulting in study discontinuation | effect on cardiac safety parameters or vital signs ([1]; 450 mg single doses): No significant effect | intensity of TEAEs ([1]; 450 mg single doses): mild | relation of TEAEs to MNTX (investigator) ([1]; 450 mg single doses): No TEAEs were considered by the investigator to be related to MNTX | subjects with headache (most frequent TEAE) ([1]; 450 mg single doses, 32 subjects): 6% | subjects experiencing at least 1 TEAE ([1]; 450 mg single doses, 32 subjects, whole study): 16% | Cmax ([1]; 450 mg Single-Dose Fasted, arithmetic mean, read-out: Cmax): 45.5 ng/mL | half-life ([1]; 450 mg Single-Dose Fasted): ~17 h | AUC(0-inf) ([1]; 450 mg Single-Dose Fasted, mean, read-out: AUC0-∞): 364 ng·h/mL | AUC(0-t) ([1]; 450 mg Single-Dose Fasted, mean, read-out: AUClast): 361 ng·h/mL | Tmax ([1]; 450 mg Single-Dose Fasted): 2 h | Cmax ([1]; 450 mg Single-Dose Fed, arithmetic mean, read-out: Cmax): 12.9 ng/mL | half-life ([1]; 450 mg Single-Dose Fed): ~17 h | AUC(0-inf) ([1]; 450 mg Single-Dose Fed, mean, read-out: AUC0-∞): 169 ng·h/mL | AUC(0-t) ([1]; 450 mg Single-Dose Fed, mean, read-out: AUClast): 166 ng·h/mL | Tmax ([1]; 450 mg Single-Dose Fed): 4 h | AUC(0-inf) ([1]; 450 mg single dose, Fasted, read-out: AUC0-∞, Geometric Least Squares Mean): 317 ng·h/mL | AUC(0-t) ([1]; 450 mg single dose, Fasted, read-out: AUClast, Geometric Least Squares Mean): 314 ng·h/mL | Cmax ([1]; 450 mg single dose, Fasted, read-out: Cmax, Geometric Least Squares Mean): 33.4 ng/mL | AUC(0-inf) ([1]; 450 mg single dose, Fed, read-out: AUC0-∞, Geometric Least Squares Mean): 160 ng·h/mL | AUC(0-t) ([1]; 450 mg single dose, Fed, read-out: AUClast, Geometric Least Squares Mean): 158 ng·h/mL | Cmax ([1]; 450 mg single dose, Fed, read-out: Cmax, Geometric Least Squares Mean): 12.2 ng/mL | subjects with TEAEs ([1]; fasted dosing period): Four | subjects with TEAEs ([1]; fed dosing period): 3 subjects | tolerability ([1]; single dose of MNTX 450 mg): well tolerated | bioavailability (in words) [2, 6]: low bioavailability | plasma protein binding (in words) [2, 6]: low plasma protein binding | tissue distribution (in words) [2, 6]: limited tissue distribution outside the GI tract | increase of systemic absorption by fasting ([2]; prior study): approximately 25% | dose recovered in urine following IV administration [3]: 31.5%-49.6% | estimated bioavailability after oral administration [4]: less than 1%
